Assay [1] deals with middle cerebral artery ischemia-reperfusion model. As to the kind of experiment: Cerebroprotective action in middle cerebral artery ischemia-reperfusion model. Conditions: for rotor rod test, ratio to before occlusion (%), Ave: reperfusion vs before occlusion. Format: in vivo, rat. The method, then:
CD(SD)IGS male rats (Japan Charles river Kabushiki kaisha, Hino farm, room No. 22, specific product) (8 rats per one group) having body weight 270 to 350 g were anesthetized by 2% isoflurane (mixed bas comprising of 70% N2O (laughter gas) and 30% O2) to immobilize, and then the rats were put on warming plate to keep the rectal and brain temperature 37 to 38° C. After that, to observe the stability in the examination, cannula which was made by polyethylene (PE-50, Becton Dickinson) was inserted and left in caudal artery of said animal, and this made blood drawing and blood pressure determining to monitor the biochemical parameter such as blood sugar level, hematocrit, CO2 concentration, oxygen partial pressure, pH, blood pressure and etc. In addition, cerebral blood flow in cortex was determined by laser doppler fluorometry (Neuroscience.inc: OMEGA FLOW (FLO-C1)), putting the detection site directly on cranium on the point left 4 mm from bregma. Left neck of such animal was incised, and from internal and external carotid fork of common carotid artery to upstream of internal carotid, nylon surgical thread (length 16 mm, diameter 0.2 to 0.3 mm, with silicon coating on its tip 3 mm) was passed and left, middle cerebral artery was obstructed for 2 hours. After that, the thread was removed to release the middle cerebral artery, and blood was reperfused for 21 hours. To each animals, 3.0 mg/kg of edaravone (control) and 5.58 mg/kg of TM-2002 were respectively administered twice by cannula which is left in caudal artery 5 minutes and 5 hours after middle cerebral artery occlusion. After said operation, the brain was removed from said animal, and after preparing 7 brain slices with 2 mm thickness, to TTC stain (0.8 g of 2,3,5-triphenyltetrazolium chloride (Sigma) dissolved in 40 ml of saline) were soaked at 37° C. for 15 minutes to stain, the area of infarction and fixed by 10% neutral formalin liquid to prepare specimen. Such specimens were created the image by CCD camera respectively, and analysed according to method of Swanson et al. (J Cereb Blood Flow Metab 10:290-293; 1994). […] Furthermore, function recovering was estimated before and after the operation by rotor rod test that estimates how much they can walk on rotating rotor.

The subject of assay [2] is pentosidine. As to the kind of experiment: Pentosidine production inhibiting effect with BSA and arabinose. Format: biochemical. Particulars: BSA and arabinose instead of plasma. The protocol: Fresh heparinized plasma samples were obtained after informed consent from hemodialysis patients prior to the dialysis session, and filtrated and sterilized. To the plasma (450 μL), there was added the solution of TM-2002 in dimethylsurphoxide (50 μL) (final concentration: 0.8, 2.0, 5.0 mM) incubated at 37° C. for one week. Then, the amount of pentosidine was measured.
Measurement of the amount of pentosidine was made as follows: to each incubated sample (50 μL) was added an equal volume of 10% trichloroacetic acid, followed by centrifugation at 5000 g for 5 minutes; after removal of the supernatant, the pellet was washed by 5% trichloroacetic acid (300 μL); the pellet was dried under reduced pressure and then subjected to hydrolysis in 6N HCl solution (100 μL) at 110° C. under nitrogen atmosphere for 16 hours; to the hydrolysate, 5N NaOH (100 μL) and 0.5 M phosphate buffer (pH 7.4) (200 μL) were added, followed by filtration through a porefilter with a pore size of 0.5 μm and dilution with PBS. The concentration of free pentosidine was determined by reversed-phase HPLC using a fluorescence detector (Miyata, T. et al.: Proc. Natl. Acad. Sci. USA, Vol. 93, p. 2353-2358, 1996). The effluent was monitored at 335/385 nm of excitation/emission wavelength. Synthetic pentosidine was used as the standard. The detection limit of pentosidine was 0.1 pmol/mg protein.
The plasma from patients was substituted to BSA and arabinose, and the pentosidine production inhibiting effect of another compounds (I) or (II) was measured in the same manner as [Test Examination 1]. Therein, “-” means that the examination was not carried out.

For the compound `CC1=NN(c2ccccc2)C(=O)C1` [Edaravone, 3-methyl-1-phenyl-2-pyrazolin-5-one, reference compound], in assay [1] (2 hours occlusion, 21 hours reperfusion, edaravone 3.0 mg/kg, TM-2002 5.58 mg/kg, twice (5 minutes and 5 hours after occlusion), vs excipient), the cerebral infarction nest entry is “significantly reduced”. Further, the “Nervous condition estimation test, Ave (grading system of Bederson et al.)” value in assay [1] (after occlusion 10 min) is given as 2.8; in assay [1] (after occlusion 2 hrs) it was 2.7; in assay [1] (after reperfusion 10 min), 2.2; in assay [1] (after reperfusion 3 hrs), 2.1; in assay [1] (after reperfusion 4 hrs), 2.0; in assay [1] (after reperfusion 22 hrs), 1.5. For the same compound, the figures for the “rotor rod test, Ave (reading value of count from rotor rod machine)” value in assay [1] (before occlusion) and in assay [1] (reperfusion) were 197.0 and 153.1, respectively. Also, in assay [1] (compared to excipient single administration), the “improvement for nervous condition and recovering the function” value is reported as “remarkably shown”. Further, the “rotor rod test, ratio to before occlusion (%), Ave” value in assay [1] was 160.4%.
For `Cc1ncc2c(c1O)C(c1c(C)nn(-c3ccccc3)c1O)OC2` (stereo not shown) [TM-3001, 1-(5-hydroxy-3-methyl-1-phenyl-1H-pyrazol-4-yl)-6-methyl-1,3-dihydro-furo[3,4-c]pyridin-7-ol], the “Nervous condition estimation test, Ave (grading system of Bederson et al.)” value is listed as 2.8 in assay [1] (after occlusion 10 min); 2.6 in assay [1] (after occlusion 2 hrs); 1.5 in assay [1] (after reperfusion 10 min); 1.3 in assay [1] (after reperfusion 3 hrs); 2.0 in assay [1] (after reperfusion 4 hrs); 2.0 in assay [1] (after reperfusion 22 hrs). Further, the “rotor rod test, Ave (reading value of count from rotor rod machine)” value in assay [1] (before occlusion) was determined as 183.4; in assay [1] (reperfusion), 160.6. In addition, in assay [1], the “rotor rod test, ratio to before occlusion (%), Ave” value was 78.1%.
With `CCc1ccc(N2N=C(C)/C(=C\c3ccc(O)cc3)C2=O)cc1` [compound 48, 2-(4-ethyl-phenyl)-4-(4-hydroxy-benzylidene)-5-methyl-2,4-dihydro-pyrazol-3-one], the “Pentosidine production rate in 5 mM of medicament (%)” value (“Pentosidine production rate … (%)” below) in assay [2] is recorded as 0.02%.
In the case of `CC1=NN(c2ccc(S(N)(=O)=O)cc2)C(=O)C1=Cc1ccc(O)cc1` [compound 49, 4-[4-(4-hydroxy-benzylidene)-3-methyl-5-oxo-4,5-dihydro-pyrazol-1-yl]-benzenesulfonamide], the “Pentosidine production rate … (%)” value in assay [2] was 7.09%.
On the same count and under the same terms, with `CCOC(=O)c1ccc(N2N=C(C(F)(F)F)/C(=C/c3cccs3)C2=O)cc1` [compound 50, 4-(5-oxo-4-thiophene-2-yl-methylene-3-trifluoromethyl-4,5-dihydro-pyrazol-1-yl)-benzoic acid-ethyl ester] the figure was 63.17%; with `CN(C)c1ccc(/C=C2\C(=O)N(c3ccc(S(N)(=O)=O)cc3)N=C2C(F)(F)F)cc1` [compound 51, 4-[4-(4-dimethylamino-benzylidene)-5-oxo-3-trifluoromethyl-4,5-dihydro-pyrazole-1-yl]-benzenesulfonamide], 41.68%.
Still for that read-out and setting: with `O=C1/C(=C\c2ccc(O)cc2)C(C(F)(F)F)=NN1c1ccccc1` [compound 53, 4-(4-hydroxy-benzylidene)-2-phenyl-5-trifluoromethyl-2,4-dihydro-pyrazol-3-one] the figure was 66.76%.
As to `CC1=NN(c2ccc(C)c(C)c2)C(=O)/C1=C\c1ccc(O)cc1O` [compound 54, 4-(2,4-dihydroxy-benzylidene)-2-(3,4-dimethyl-phenyl)-5-methyl-2,4-dihydro-pyrazol-3-one], the “Pentosidine production rate … (%)” value in assay [2] was 73.48%.
For `COc1ccc(/C=C2/C(=O)N(c3ccccc3)N=C2C)c(OC)c1O` [compound 59, 4-(3-hydroxy-2,4-dimethoxy-benzylidene)-5-methyl-2-phenyl-2,4-dihydro-pyrazol-3-one], the “Pentosidine production rate … (%)” value in assay [2] came to 5.3%.
As to `COc1cc(/C=C2/C(=O)N(c3ccc(C(=O)OC(C)C)cc3)NC2C)ccc1O` (stereo not shown) [compound 60, 4-[4-(4-hydroxy-3-methoxy-benzylidene)-3-methyl-5-oxo-pyrazolidin-1-yl]-benzoic acid-isopropyl ester], in assay [2], the “Pentosidine production rate … (%)” value turned out to be 9.02%.
Same read-out and setting: with `COc1cc(/C=C2/C(=O)N(c3ccc(Cl)c(C(=O)O)c3)N=C2C)c(Cl)cc1O` [compound 61, 2-chloro-5-[4-(2-chloro-4-hydroxy-5-methoxy-benzylidene)-3-methyl-5-oxo-4,5-dihydro-pyrazol-1-yl]-benzoic acid] the figure was 46.25%; with `CC1=NN(c2ccccc2)C(=O)/C1=C/N(C)C` [compound 65, 4-dimethylaminomethylene-5-methyl-2-phenyl-2,4-dihydro-pyrazol-3-one], 62.43%; with `CC1=NN(c2ccccc2)C(=O)/C1=C/c1c(C)nn(-c2ccccc2)c1O` [compound 66, 4-(5-hydroxy-3-methyl-1-phenyl-1H-pyrazol-4-yl-methylene)-5-methyl-2-phenyl-2,4-dihydro-pyrazol-3-one], 15.17%.
Regarding `CC1=NN(c2ccccc2)C(=O)/C1=C/c1ccc(Cl)cc1` [compound 67, 4-(4-chloro-benzylidene)-5-methyl-2-phenyl-2,4-dihydro-pyrazol-3-one], the “Pentosidine production rate … (%)” value in assay [2] is 9.09%.
Regarding `CC1=NN(c2ccccc2)C(=O)/C1=C/c1ccc(O)cc1` [compound 70, 4-(4-hydroxy-benzylidene)-5-methyl-2-phenyl-2,4-dihydro-pyrazol-3-one], the “Pentosidine production rate … (%)” value in assay [2] was 0.04%.
Same read-out and setting: with `CC1=NN(c2cccc(Cl)c2)C(=O)/C1=C/c1ccc(O)cc1` [compound 71, 2-(3-chloro-phenyl)-4-(4-hydroxy-benzylidene)-5-methyl-2,4-dihydropyrazol-3-one] the figure was 4.63%; with `CC1=NN(c2ccccc2)C(=O)/C1=C/c1ccc(OCc2ccccc2)cc1` [compound 72, 4-(4-benzyloxy-benzylidene)-5-methyl-2-phenyl-2,4-dihydropyrazol-3-one], 7.63%; with `CC1=NN(c2cccc(Cl)c2)C(=O)/C1=N/O` [compound 73, 2-(3-chloro-phenyl)-5-methyl-2H-pyrazol-3,4-dione 4-oxym], 66.42%.
For `CCOC(=O)C1=NN(c2ccccc2)/C(=C2\C(=O)N(c3ccccc3)N=C2c2ccccc2)S1` [compound 74, 5-(5-oxo-1,3-diphenyl-1,5-dihydro-pyrazol-4-ylidene)-4-phenyl-4,5-dihydro-[1,3,4]thiazole-2-carboxilic acid-ethyl este], the “Pentosidine production rate … (%)” value in assay [2] worked out at 87.24%.
